{"source": "patent US8212016B2", "about": "“NPC1L1 orthologues” (Schering Corporation, priority 2006, dated 2012)", "key": {"[1]": {"tested_on": "^14C-cholesterol absorption", "experiment": "Acute cholesterol absorption assay", "assay_type": "in vivo", "details": "rat, intraduodenal; read-out: rat ED50, inhibition of cholesterol absorption", "protocol": "Acute cholesterol absorption assay. ^14C-cholesterol absorption was determined acutely in rats using conditions previously described (Van Heek et al., J. Pharmacol. Exp. Ther. 283: 157-163 (1997)). Compounds were dissolved in rat bile and delivered (1.0 ml) intraduodenally by bolus injection via an intestinal catheter, followed by 1.0 ml saline rinse (0.9%). Following a 30 min incubation, a cholesterol emulsion containing 3 mg cholesterol and 2 μCi ^14C-cholesterol (3 ml) was delivered to each rat as a bolus via intestinal catheter, followed by 1 ml saline rinse. Animals were sacrificed 90 min later and ^14C-cholesterol levels in plasma, liver, intestinal contents, and intestinal wall were determined."}, "cholesterol absorption [2]": {"tested_on": "cholesterol absorption", "experiment": "In vivo potency of ezetimibe (ED50)", "details": "Mouse"}, "cholesterol absorption [3]": {"tested_on": "cholesterol absorption", "experiment": "In vivo potency of ezetimibe (ED50)", "details": "Primates, Monkey"}, "cholesterol absorption [4]": {"tested_on": "cholesterol absorption", "experiment": "In vivo potency of ezetimibe (ED50)", "details": "Rat"}, "cholesterol absorption [5]": {"tested_on": "cholesterol absorption", "experiment": "In vivo potency of ezetimibe (ED50)", "details": "Canis lupus familiaris, Canine"}, "[6]": {"tested_on": "plasma and liver cholesterol", "experiment": "Percent cholesterol lowering in plasma and liver", "assay_type": "in vivo", "details": "hamster"}, "[7]": {"details": "intraduodenal delivery, first pass metabolism in the intestine; cited from earlier work"}, "canine NPC1L1": {"target": "canine NPC1L1 (Canis lupus familiaris, UniProt A0MJA4)", "experiment": "Fluorescence NPC1L1 binding assay, HEK-293 cells, BODIPY-labeled compound 1", "protocol": "(§1) Cell Culture and Membrane Preparation. Each plasmid pCR3.1 harboring NPC1L1 was prepared using standard molecular biology protocols. Stable cell lines expressing human, rhesus monkey, mouse, rat, hamster, canine or rabbit NPC1L1 were generated using Lipofectamine 2000 transfection reagent in HEK-293 cells according to the manufacturer's protocol. Cells were maintained in DMEM supplemented with 10% FBS, 100 U/ml pen/strep, and 500 μg/ml geneticin at 37° C., 5% CO2. All cell culture reagents were obtained from Invitrogen Life Technologies, (Carlsbad, Calif.). Cell membranes were prepared by lysing cells in 5 mM HEPES with protease inhibitors (Complete™ Protease Inhibitor Cocktail Tablets; Roche Diagnostics Corp., Indianapolis Ind.) for 15 min at 4° C. A membrane pellet was obtained by centrifuging the cell lysates at 12,000×g for 25 min. The membranes were resuspended in 5 mM HEPES with protease inhibitors and triturated with a 21G needle.\n(§2) Fluorescence. Cells were plated into 384-well black/clear plates (BD Biosciences, Bedford Mass.) for binding experiments the following day. The media was aspirated. […] Media (20 μl) containing the indicated concentration of compound was then added to the wells. […] The binding reaction was allowed to proceed for 4 hours at 37° C. Subsequently the media was aspirated and the cells washed once with PBS."}, "human NPC1L1": {"target": "T1, human NPC1L1 (Homo sapiens, UniProt Q9UHC9, T1073A)", "T1 construct": "expressed in transfected cells", "T1 sequence (Q9UHC9 22-1332 isoform Q9UHC9-2 T1046A)": "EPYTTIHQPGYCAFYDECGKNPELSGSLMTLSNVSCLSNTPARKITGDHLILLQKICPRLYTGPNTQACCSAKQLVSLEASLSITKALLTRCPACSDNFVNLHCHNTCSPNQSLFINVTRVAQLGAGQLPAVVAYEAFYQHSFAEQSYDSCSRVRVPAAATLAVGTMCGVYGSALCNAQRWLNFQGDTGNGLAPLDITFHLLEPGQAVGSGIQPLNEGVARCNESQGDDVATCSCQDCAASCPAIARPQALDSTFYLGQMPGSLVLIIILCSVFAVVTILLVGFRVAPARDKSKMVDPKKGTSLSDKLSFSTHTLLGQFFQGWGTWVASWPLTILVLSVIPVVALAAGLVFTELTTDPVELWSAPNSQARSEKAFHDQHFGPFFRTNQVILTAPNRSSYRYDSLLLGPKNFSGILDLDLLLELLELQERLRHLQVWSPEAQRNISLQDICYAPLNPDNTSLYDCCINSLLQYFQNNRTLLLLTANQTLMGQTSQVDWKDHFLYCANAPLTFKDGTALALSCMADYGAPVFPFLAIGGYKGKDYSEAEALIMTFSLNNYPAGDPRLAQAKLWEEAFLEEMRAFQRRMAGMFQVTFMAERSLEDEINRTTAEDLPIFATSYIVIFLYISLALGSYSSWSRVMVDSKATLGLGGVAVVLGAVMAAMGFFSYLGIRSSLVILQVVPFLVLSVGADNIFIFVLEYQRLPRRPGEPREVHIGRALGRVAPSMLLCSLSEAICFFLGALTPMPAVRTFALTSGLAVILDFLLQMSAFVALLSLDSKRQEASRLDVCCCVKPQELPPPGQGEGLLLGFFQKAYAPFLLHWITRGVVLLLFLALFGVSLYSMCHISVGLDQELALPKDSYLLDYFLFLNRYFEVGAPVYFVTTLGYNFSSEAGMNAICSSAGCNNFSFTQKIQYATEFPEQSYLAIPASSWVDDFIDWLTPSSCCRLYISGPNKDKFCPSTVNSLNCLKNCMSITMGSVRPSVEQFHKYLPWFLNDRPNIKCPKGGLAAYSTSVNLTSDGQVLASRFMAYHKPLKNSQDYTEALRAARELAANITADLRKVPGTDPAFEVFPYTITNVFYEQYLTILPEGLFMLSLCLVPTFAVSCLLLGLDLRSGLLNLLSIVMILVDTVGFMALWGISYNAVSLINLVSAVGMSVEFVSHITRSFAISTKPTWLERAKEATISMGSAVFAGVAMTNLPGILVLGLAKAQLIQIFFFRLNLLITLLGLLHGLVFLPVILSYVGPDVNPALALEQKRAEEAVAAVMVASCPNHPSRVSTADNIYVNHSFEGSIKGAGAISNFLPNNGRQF", "experiment": "Fluorescence NPC1L1 binding assay, HEK-293 cells, BODIPY-labeled compound 1", "details": "Human NPC1L1, competition with compound 1; read-out: Ki", "protocol": "as §1, §2"}, "rat NPC1L1": {"target": "T2, rat NPC1L1 (Rattus norvegicus, UniProt Q6T3U3, A349V/E317P/G318E/K324N/L297S)", "T2 construct": "expressed in transfected cells", "experiment": "Fluorescence NPC1L1 binding assay, HEK-293 cells, BODIPY-labeled compound 1", "details": "Rat NPC1L1, competition with compound 1; read-out: Ki", "protocol": "as §1, §2"}, "rabbit NPC1L1": {"target": "rabbit NPC1L1 (Oryctolagus cuniculus, UniProt A0MJA7)", "experiment": "Fluorescence NPC1L1 binding assay, HEK-293 cells, BODIPY-labeled compound 1", "protocol": "as §1, §2"}, "hamster NPC1L1": {"target": "hamster NPC1L1 (Mesocricetus auratus, UniProt A0MJA8)", "experiment": "Fluorescence NPC1L1 binding assay, HEK-293 cells, BODIPY-labeled compound 1", "protocol": "as §1, §2"}, "monkey NPC1L1": {"target": "monkey NPC1L1 (Macaca mulatta, UniProt A0MJA5)", "experiment": "Fluorescence NPC1L1 binding assay, HEK-293 cells, BODIPY-labeled compound 1", "set-up": "species or system rhesus monkey", "details": "Monkey NPC1L1, competition with compound 1; read-out: Ki", "protocol": "as §1, §2"}, "cholesterol absorption [8]": {"tested_on": "cholesterol absorption", "experiment": "In vivo potency of ezetimibe (ED50)", "details": "Mesocricetus auratus, Hamster"}, "mouse NPC1L1": {"target": "T3, mouse NPC1L1 (Mus musculus, UniProt Q6T3U4, N476K)", "T3 construct": "expressed in transfected cells", "experiment": "Fluorescence NPC1L1 binding assay, HEK-293 cells, fluorescent compound 2 as ligand", "protocol": "as §1, §2\nIn an effort to show binding to mouse NPC1L1, several related ezetimibe analogs were examined as possible alternatives to fluorescently-labeled (BODIPY) ezetimibe glucuronide (compound 1) in the binding assay. Compound 2, which is a fluorescently labeled synthetic precursor for fluorescently-labeled (BODIPY) ezetimibe glucuronide (compound 1; Burnett et al., Bioorganic and Medicinal Chemistry Letters 12:315-318 (2002)), was identified as a viable option for detection of mouse NPC1L1 binding. Compound 2 contains a methyl ester substitution for the carboxylic acid on the glucuronide portion of the molecule (compound structures shown in FIG. 4A)."}, "[9]": {"details": "following oral administration; cited from earlier work"}}, "note": "Where two headings read alike, the source gives them in different places."}
{"smiles": "O=C1[C@H](CC[C@H](O)c2ccc(F)cc2)[C@@H](c2ccc(O)cc2)N1c1ccc(F)cc1", "note": "[compound 3, ezetimibe]", "values": [{"measurement": "ED50", "setting": "[1]", "value": 0.0016, "unit": "mg/kg"}, {"measurement": "ED50", "setting": "cholesterol absorption [2]", "value": 0.7, "unit": "mg/kg"}, {"measurement": "ED50", "setting": "cholesterol absorption [3]", "value": 0.0005, "unit": "mg/kg"}, {"measurement": "ED50", "setting": "cholesterol absorption [4]", "value": 0.03, "unit": "mg/kg"}, {"measurement": "ED50", "setting": "cholesterol absorption [5]", "value": 0.007, "unit": "mg/kg"}, {"measurement": "cholesterol lowering Liver", "setting": "[6]; liver", "value": 96, "unit": "%"}, {"measurement": "cholesterol lowering Plasma", "setting": "[6]; plasma", "value": 26, "unit": "%"}, {"measurement": "fraction of compound in portal plasma that is the glucuronide compound 4", "setting": "[7]", "value": "> 95", "unit": "%"}, {"measurement": "Ki", "setting": "canine NPC1L1; Canine NPC1L1, competition with compound 1, read-out: Ki", "value": 770, "unit": "nM"}, {"measurement": "Ki", "setting": "canine NPC1L1; Table 3, Dog, read-out: Ki Dog NPC1L1", "value": 770, "unit": "nM"}, {"measurement": "Ki", "setting": "human NPC1L1", "value": 2240, "unit": "nM"}, {"measurement": "Ki", "setting": "rat NPC1L1", "value": 970, "unit": "nM"}, {"measurement": "Ki", "setting": "rabbit NPC1L1; Rabbit NPC1L1, competition with compound 1, read-out: Ki", "value": 2120, "unit": "nM"}, {"measurement": "Ki", "setting": "rabbit NPC1L1; Table 3, Rabbit, read-out: Ki Rabbit NPC1L1", "value": 2100, "unit": "nM"}, {"measurement": "Ki", "setting": "hamster NPC1L1; Hamster NPC1L1, competition with compound 1, read-out: Ki", "value": 1530, "unit": "nM"}, {"measurement": "Ki", "setting": "hamster NPC1L1; Table 3, Hamster, read-out: Ki Hamster NPC1L1", "value": 1530, "unit": "nM"}, {"measurement": "Ki", "setting": "monkey NPC1L1", "value": 900, "unit": "nM"}, {"measurement": "ED50", "setting": "cholesterol absorption [8]", "value": 0.04, "unit": "mg/kg"}, {"measurement": "Ki", "setting": "mouse NPC1L1; Mouse NPC1L1, competition with compound 2, read-out: Ki", "value": 5400, "unit": "nM"}, {"measurement": "Ki", "setting": "mouse NPC1L1; Table 3, Mouse, read-out: Ki Mouse NPC1L1", "value": 9000, "unit": "nM"}, {"measurement": "fraction of ezetimibe glucuronidated", "setting": "[9]", "value": 90, "unit": "%"}]}
